For two compounds, inhibition results are on record in patent publication US9686989B2, “Synergistic combination of a flurochloridone compound and zinc pyrithione for dry film protection” (Rohm and Haas Company, priority 2013, dated 2017).

For the assay, the system named is Chlorella sp. ATCC 7516. The experiment in a line: Algal efficacy testing of dry paint film (modified ASTM 5589, 6-well plates). Format: cell-based. Particulars: 672 h, 4 weeks, pass level ≧75% inhibition. As for the experimental part:
Slurries containing 33% antimicrobial active ingredient (flurochloridone) were post added to a white, acrylic/silicone based outdoor paint free of biocides to give a total active ingredient concentration of 10000 and 1000 ppm respectively. KATHON™ 893T (100% OIT) was post added to a white, acrylic/silicone based outdoor paint free of biocides to give a total active ingredient concentration of 10000 and 1000 ppm respectively. These paints were then diluted with an antimicrobial free acrylic/silicone based paint and mixed to prepare targeted concentrations of antimicrobial compounds for the testing. The total biocides concentrations tested were 125, 250, 500, 1000, 2000 and 5000 ppm. After biocides addition or dilution, the paints were mixed 90 seconds with the horse power shaker (AXEL 75M3372/Agitateur SO-10MI) until uniformity was achieved. […]
Each well that contains a tested coupon was inoculated with 1750 μl of algal suspensions (1×10^6 cfu/ml) making sure that the whole surface (paint film as well as the agar surrounding it) was evenly covered. […] The total area inhibited was evaluated at the end of each week according to percent area covered in 5% increments
At the end of the four week incubation period, the samples were scored for percent inhibition regarding color intensity compared to the blank sample. […]
The SI is calculated based on F. C. […]

Turning to `O=C1C(Cl)C(CCl)CN1c1cccc(C(F)(F)F)c1` (centres unmarked) [Flurochloridone, 3-chloro-4-(chloromethyl)-1-[3-(trifluoromethyl)phenyl]-2-pyrrolidinone], the inhibition at 5000 ppm (total conc 5000 ppm in paint) was 90%.

In the case of `CCCCCCCCn1sccc1=O` [OIT, 2-n-octyl-4-isothiazolin-3-one], under “total conc 2000 ppm in paint”, the inhibition at 2000 ppm stood at 65%.
